In PubChem BioAssay (NCI):
Where “and” joins values, the source holds several entries; their conditions need not be identical. Equal entries are not always repeated.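 Protocol summary: plate cells (96-well), add compound at 5 concentrations, incubate 48 h, interpolate endpoints linearly. At the GI50, growth is halved. TGI denotes the concentration required for complete inhibition of growth.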

How the values were obtained:
Experiment in all cases: growth of human tumour cells (NCI), 48 h
BT-549 breast = test system: BT-549 breast
CAKI-1 renal = test system: CAKI-1 renal
CCRF-CEM leukemia = test system: CCRF-CEM leukemia
HCT-116 colon = test system: HCT-116 colon
HOP-62 NSCLC = test system: HOP-62 NSCLC
NCI-H23 lung = test system: NCI-H23 lung
RXF 393 renal = test system: RXF 393 renal
SF-539 CNS = test system: SF-539 CNS
SK-MEL-28 melanoma = test system: SK-MEL-28 melanoma
SNB-19 CNS = test system: SNB-19 CNS

Row | Structure (SMILES) | GI50 (BT-549 breast) | TGI (BT-549 breast) | GI50 (CAKI-1 renal) [µM] | TGI (CAKI-1 renal) | GI50 (CCRF-CEM leukemia) | TGI (CCRF-CEM leukemia) | GI50 (HCT-116 colon) [µM] | TGI (HCT-116 colon) [µM] | GI50 (HOP-62 NSCLC) | TGI (HOP-62 NSCLC) [µM] | GI50 (NCI-H23 lung) | TGI (NCI-H23 lung) [µM] | GI50 (RXF 393 renal) [µM] | TGI (RXF 393 renal) | GI50 (SF-539 CNS) | TGI (SF-539 CNS) | GI50 (SK-MEL-28 melanoma) [µM] | TGI (SK-MEL-28 melanoma) | GI50 (SNB-19 CNS) [µM] | TGI (SNB-19 CNS)
1 | CCCC(=O)NNc1[nH]c(-c2ccc(OC)cc2)cc1C(=O)OCC | 15.7 µM | 31 µM | 12.5 | 25.7 µM | 2.82 µM | > 100 µM | 37.2 | > 100 | > 100 µM | > 100 | 14.9 µM | 38 | 22 | 45.1 µM | 19.3 µM | 37 µM | 12.7 | 25.6 µM | 54.3 | > 100 µM
2 | Cc1ccc2sc3c(NCCCNCCO)nc4ccccc4c3c(=O)c2c1 | 1.54 µM | 3.02 µM | 1.43 | 2.82 µM | 1.35 µM | 2.97 µM | 1.41 | 2.73 | 1.27 µM | 2.87 | 1.74 µM | 3.35 | 1.5 | 2.88 µM | 1.68 µM | 3.08 µM | 1.8 | 3.36 µM |  | 
3 | Cc1ccc(NC(=O)c2ccnc(N3CCCC3)c2)cc1-c1ccc(C(=O)NCC2CC2)cc1 | > 25 µM | > 25 µM | > 25 | > 25 µM | > 25 µM | > 25 µM | > 23.8 | > 25 | > 25 µM | > 25 | > 25 µM | > 25 |  | > 25 µM | > 25 µM | > 25 µM | > 25 | > 25 µM | > 25 | > 25 µM
4 | ON(CCc1ccccn1)Cc1ccccc1 |  | > 100 µM |  | > 100 µM |  |  |  | > 100 |  | > 100 |  | > 100 |  | > 100 µM |  | > 100 µM |  | > 100 µM |  | > 100 µM
5 | Nc1ccn([C@@H]2C=C(CO)[C@@H](O)[C@H]2O)c(=O)n1 |  | 113 µM |  | 4.52 µM and 4.16 µM and 22.2 µM |  | 294 µM and > 625 µM |  |  | 0.0593 µM and 0.0749 µM |  | 0.114 µM |  |  | 201 µM and 44.8 µM |  | 266 µM and > 625 µM |  | 500 µM and > 625 µM |  | 500 µM and > 625 µM
6 | CC1(C)C2CCC13C(=O)C1OC3(C2)C2C(=O)c3c(O)ccc(O)c3C(=O)C12 (centres undefined) | > 70.3 µM | > 92.2 µM | 4.31 | 18.1 µM | 4.45 µM | > 46.9 µM | 34.9 | > 100 | 54.5 µM | > 100 | 16.4 µM | 37.5 | 31.1 | > 56.9 µM | 48 µM | > 100 µM | 36 | > 100 µM | 61.5 | > 100 µM
7 | C/C(=C\c1c[nH]c2ccccc12)[N+](=O)[O-] | 11 µM | 24 µM | 5.67 | 18.9 µM | 1.62 µM | 4.2 µM | 2.37 | 8.08 | 4.04 µM | 13.6 | 10.2 µM | 22.6 | 2.91 | 11.5 µM | 3.7 µM | 15.2 µM | 1.84 | 5.47 µM | 5.82 | 20 µM
8 | COc1cccc2c1c1nc3cc(C)c(C)cc3nc1n2CCN(C)C | 2.36 µM | 10.2 µM | 0.946 | 6.34 µM | 1.81 µM | 7.3 µM | 0.426 | 10.3 | 1.72 µM | 11 | 1.66 µM | 5.57 | 1.59 | 3.54 µM | 1.92 µM | 5.48 µM | 1.94 | 4.23 µM | 2.04 | 14 µM
9 | CNC1C(O)CC(OC2C/C=C(\C)C/C(C)=C/C=C/CCC(C)CNC(=O)/C=C/C=C/C2C)OC1C (centres undefined) |  | 2.58 µM |  | 1.6 µM |  | 0.758 µM |  | 0.324 |  |  |  | 2.62 |  | 2.43 µM |  | 3.14 µM |  | 2.97 µM |  | 8.31 µM
10 | CC[C@H](C)C(=O)O[C@H]1CCC=C2C=C[C@H](C)C(CCC3C[C@@H](O)CC(=O)O3)[C@H]21 (some centres undefined) | 17.2 µM | > 100 µM | 1.76 | 4.96 µM | > 100 µM | > 100 µM | 2.99 | 62.1 | 18.1 µM | > 100 | 3.5 µM | > 100 | 3.65 | 24.4 µM | 83.2 µM | > 100 µM | 84.9 | > 100 µM | 18.4 | > 100 µM
11 | Cn1cc(C2=C(c3c4n(c5ccccc35)CCC(CN)CC4)C(=O)NC2=O)c2ccccc21 (centres undefined) | 4.7 µM | 8.62 µM | 4.75 | 10.7 µM | 5.19 µM | 15.6 µM | 3.51 | 7.26 | 3.93 µM | 8.22 | 5.05 µM | 10.9 | 3.65 | 7.1 µM | 3.91 µM | 7.35 µM | 4.17 | 8.06 µM | 4.52 | 10.7 µM
12 | Clc1ccc(CO/N=C(\Cn2ccnc2)c2ccc(Cl)cc2Cl)c(Cl)c1 | 1.97 µM | 3.61 µM | 1.38 | 3.39 µM | 1.87 µM | 4.62 µM | 1.5 | 3.19 | 1.56 µM | 2.9 |  |  | 1.61 | 3.05 µM | 1.86 µM | 3.34 µM | 1.67 | 3.07 µM |  | 
13 | COC(=O)[C@@H](C)C[C@H](Cc1ccccc1)NC(=O)c1csc([C@@H](C[C@H](C(C)C)N(C)C(=O)[C@@H](NC(=O)[C@H]2CCCCN2C)C(C)C)OC(C)=O)n1 | 0.000284 µM and < 0.0025 µM | 0.0183 µM and < 0.0025 µM |  |  | 0.000425 µM and 0.0025 µM | > 25 µM |  | > 25 | 0.000396 µM and 0.0025 µM | > 25 | 0.000395 µM and 0.0025 µM | > 25 | 0.0025 | > 25 µM | 0.000294 µM and < 0.0025 µM | 0.00209 µM and < 0.0025 µM | 0.0025 | > 25 µM |  | > 25 µM
14 | COC(=O)c1c2c(c(C)[n+]([O-])c1C)C(=O)C(NCc1ccc(F)c(F)c1)=CC2=O | 2.14 µM | 5.86 µM | 2.39 | 10.5 µM | 1.72 µM | 4.57 µM | 1.65 | 5.71 | 2.45 µM | 7.47 | 1.87 µM | 4.52 | 2.15 | 5.96 µM | 1.92 µM | 4.12 µM | 4.11 | 13.8 µM |  | 
